From PubChem BioAssay (NCI)
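Interpolation was linear, between the two tested concentrations surrounding the appropriate level; five concentrations were tested over 48 hours in 96-well plates. GI50 is the concentration that inhibits growth by half. TGI: concentration producing complete growth inhibition.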

What was measured:
Test in all cases: NCI-60 cell line screen, 48 h
NCI-H226 lung = test system: NCI-H226 lung
NCI-H460 lung = test system: NCI-H460 lung
NCI-H522 lung = test system: NCI-H522 lung
NCI/ADR-RES ovarian = test system: NCI/ADR-RES ovarian
OVCAR-3 ovarian = test system: OVCAR-3 ovarian
OVCAR-4 ovarian = test system: OVCAR-4 ovarian
OVCAR-5 ovarian = test system: OVCAR-5 ovarian
OVCAR-8 ovarian = test system: OVCAR-8 ovarian
PC-3 prostate = test system: PC-3 prostate
RPMI-8226 leukemia = test system: RPMI-8226 leukemia
RXF 393 renal = test system: RXF 393 renal
SF-268 CNS = test system: SF-268 CNS
SF-295 CNS = test system: SF-295 CNS
SF-539 CNS = test system: SF-539 CNS
SK-MEL-2 melanoma = test system: SK-MEL-2 melanoma
SK-MEL-28 melanoma = test system: SK-MEL-28 melanoma
SK-MEL-5 melanoma = test system: SK-MEL-5 melanoma
SK-OV-3 ovarian = test system: SK-OV-3 ovarian
SN12C renal = test system: SN12C renal
SNB-19 CNS = test system: SNB-19 CNS
SNB-75 CNS = test system: SNB-75 CNS
SR leukemia = test system: SR leukemia
SW-620 colon = test system: SW-620 colon
T-47D breast = test system: T-47D breast
TK-10 renal = test system: TK-10 renal
U251 CNS = test system: U251 CNS
UACC-257 melanoma = test system: UACC-257 melanoma
UACC-62 melanoma = test system: UACC-62 melanoma
UO-31 renal = test system: UO-31 renal

SMILES: COc1ccc(CCOc2cc3c(cc2OC)CCN(C(=O)NCc2cocn2)C3c2ccc(C)cc2C)cc1 (configuration not stated)
- TGI (NCI-H226 lung): 5160 nM
- GI50 (NCI-H460 lung): 374 nM
- TGI (NCI-H460 lung): 3810 nM
- GI50 (NCI-H522 lung): 243 nM
- TGI (NCI-H522 lung): 634 nM
- GI50 (NCI/ADR-RES ovarian): 610 nM
- TGI (NCI/ADR-RES ovarian): > 34400 nM
- GI50 (OVCAR-3 ovarian): 603 nM
- TGI (OVCAR-3 ovarian): 10300 nM
- GI50 (OVCAR-4 ovarian): 1510 nM
- TGI (OVCAR-4 ovarian): > 100000 nM
- GI50 (OVCAR-5 ovarian): 1350 nM
- TGI (OVCAR-5 ovarian): > 100000 nM
- GI50 (OVCAR-8 ovarian): 358 nM
- TGI (OVCAR-8 ovarian): 10100 nM
- GI50 (PC-3 prostate): 631 nM
- TGI (PC-3 prostate): > 35100 nM
- GI50 (RPMI-8226 leukemia): 370 nM
- TGI (RPMI-8226 leukemia): 1660 nM
- GI50 (RXF 393 renal): 425 nM
- TGI (RXF 393 renal): 2540 nM
- GI50 (SF-268 CNS): 940 nM
- TGI (SF-268 CNS): 8920 nM
- GI50 (SF-295 CNS): 897 nM
- TGI (SF-295 CNS): 7030 nM
- GI50 (SF-539 CNS): 346 nM
- TGI (SF-539 CNS): 1630 nM
- GI50 (SK-MEL-2 melanoma): 946 nM
- TGI (SK-MEL-2 melanoma): 3890 nM
- GI50 (SK-MEL-28 melanoma): 1010 nM
- TGI (SK-MEL-28 melanoma): 7290 nM
- GI50 (SK-MEL-5 melanoma): 509 nM
- TGI (SK-MEL-5 melanoma): 1390 nM
- GI50 (SK-OV-3 ovarian): 1260 nM
- TGI (SK-OV-3 ovarian): 40700 nM
- GI50 (SN12C renal): 831 nM
- TGI (SN12C renal): 4850 nM
- GI50 (SNB-19 CNS): 1600 nM
- TGI (SNB-19 CNS): 21900 nM
- GI50 (SNB-75 CNS): 761 nM
- TGI (SNB-75 CNS): 5260 nM
- GI50 (SR leukemia): 341 nM
- TGI (SR leukemia): 2030 nM
- GI50 (SW-620 colon): 507 nM
- TGI (SW-620 colon): > 100000 nM
- GI50 (T-47D breast): 1060 nM
- TGI (T-47D breast): 9020 nM
- GI50 (TK-10 renal): 2960 nM
- TGI (TK-10 renal): 26700 nM
- GI50 (U251 CNS): 605 nM
- TGI (U251 CNS): 4530 nM
- GI50 (UACC-257 melanoma): 1390 nM
- TGI (UACC-257 melanoma): 19800 nM
- GI50 (UACC-62 melanoma): 495 nM
- TGI (UACC-62 melanoma): 5930 nM
- GI50 (UO-31 renal): 1180 nM
- TGI (UO-31 renal): 14200 nM
